Reference: the supplement of paper PMC13380429

Key:
Conditions in all cases: 72 h
[1] = system: U2OS; assay: cell viability relative to DMSO; higher = less toxic
[2] = system: Caco-2; assay: as above
[3] = system: HepG2; assay: as above
[4] = system: Calu-3; assay: as above
[5] = system: Vero E6; assay: as above
[6] = system: U2OS; assay: drug sensitivity score (DSS) for viability; higher = more toxic; extreme values may be limits of the assay
[7] = system: Caco-2; assay: as above
[8] = system: HepG2; assay: as above
[9] = system: Calu-3; assay: as above
[10] = system: Vero E6; assay: as above
[11] = system: U2OS; assay: relative viability EC50 (midpoint between 100% and the lowest measured viability); higher = less toxic
[12] = system: Caco-2; assay: as above
[13] = system: HepG2; assay: as above
[14] = system: Calu-3; assay: as above
[15] = system: Vero E6; assay: as above

C[C@]12CC[C@H]3[C@@H](CCC4=CC(=O)CC[C@@H]43)[C@@H]1CC[C@@H]2O [Nandrolone]
cell viability ([1]; 1 nM): 98.7%
cell viability ([1]; 10 nM): 96.1%
cell viability ([1]; 100 nM): 98.5%
cell viability ([1]; 1000 nM): 96.5%
cell viability ([1]; 10000 nM): 96.7%
cell viability ([2]; 1 nM): 92%
cell viability ([2]; 10 nM): 91.3%
cell viability ([2]; 100 nM): 98.7%
cell viability ([2]; 1000 nM): 103%
cell viability ([2]; 10000 nM): 95%
cell viability ([3]; 1 nM): 102%
cell viability ([3]; 10 nM): 101%
cell viability ([3]; 100 nM): 96.9%
cell viability ([3]; 1000 nM): 108%
cell viability ([3]; 10000 nM): 113%
cell viability ([4]; 1 nM): 95.7%
cell viability ([4]; 10 nM): 102%
cell viability ([4]; 100 nM): 102%
cell viability ([4]; 1000 nM): 104%
cell viability ([4]; 10000 nM): 99.4%
cell viability ([5]; 1 nM): 91.6%
cell viability ([5]; 10 nM): 104%
cell viability ([5]; 100 nM): 89.9%
cell viability ([5]; 1000 nM): 96.2%
cell viability ([5]; 10000 nM): 103%
drug sensitivity score [6]: 0
drug sensitivity score [7]: 0
drug sensitivity score [8]: 0
drug sensitivity score [9]: 0
drug sensitivity score [10]: 0
relative viability EC50 [11]: > 10 µM
relative viability EC50 [12]: > 10 µM
relative viability EC50 [13]: > 10 µM
relative viability EC50 [14]: > 10 µM
relative viability EC50 [15]: > 10 µM

N[C@@H](Cc1c[nH]c2ccc(O)cc12)C(=O)O [5-hydroxytryptophan]
cell viability ([1]; 1 nM): 100%
cell viability ([1]; 10 nM): 97.3%
cell viability ([1]; 100 nM): 99.6%
cell viability ([1]; 1000 nM): 94.2%
cell viability ([1]; 10000 nM): 96.6%
cell viability ([2]; 1 nM): 93.3%
cell viability ([2]; 10 nM): 94.5%
cell viability ([2]; 100 nM): 92.5%
cell viability ([2]; 1000 nM): 88.8%
cell viability ([2]; 10000 nM): 103%
cell viability ([3]; 1 nM): 102%
cell viability ([3]; 10 nM): 97.4%
cell viability ([3]; 100 nM): 105%
cell viability ([3]; 1000 nM): 106%
cell viability ([3]; 10000 nM): 94.9%
cell viability ([4]; 1 nM): 93.6%
cell viability ([4]; 10 nM): 94.7%
cell viability ([4]; 100 nM): 94.1%
cell viability ([4]; 1000 nM): 94.4%
cell viability ([4]; 10000 nM): 107%
cell viability ([5]; 1 nM): 98.4%
cell viability ([5]; 10 nM): 95.7%
cell viability ([5]; 100 nM): 100%
cell viability ([5]; 1000 nM): 92.3%
cell viability ([5]; 10000 nM): 95.5%
drug sensitivity score [6]: 0
drug sensitivity score [7]: 0
drug sensitivity score [8]: 0
drug sensitivity score [9]: 0
drug sensitivity score [10]: 0
relative viability EC50 [11]: > 10 µM
relative viability EC50 [12]: > 10 µM
relative viability EC50 [13]: > 10 µM
relative viability EC50 [14]: > 10 µM
relative viability EC50 [15]: > 10 µM

C[C@]12COC(=O)C[C@@H]1CC[C@@H]1[C@@H]2CC[C@@]2(C)[C@H]1CC[C@]2(C)O [Oxandrolone]
cell viability ([1]; 1 nM): 101%
cell viability ([1]; 10 nM): 99.4%
cell viability ([1]; 100 nM): 99.7%
cell viability ([1]; 1000 nM): 102%
cell viability ([1]; 10000 nM): 104%
cell viability ([2]; 1 nM): 106%
cell viability ([2]; 10 nM): 101%
cell viability ([2]; 100 nM): 100%
cell viability ([2]; 1000 nM): 99.4%
cell viability ([2]; 10000 nM): 106%
cell viability ([3]; 1 nM): 102%
cell viability ([3]; 10 nM): 94.9%
cell viability ([3]; 100 nM): 104%
cell viability ([3]; 1000 nM): 99.4%
cell viability ([3]; 10000 nM): 90.8%
cell viability ([4]; 1 nM): 98.3%
cell viability ([4]; 10 nM): 98.4%
cell viability ([4]; 100 nM): 96.8%
cell viability ([4]; 1000 nM): 103%
cell viability ([4]; 10000 nM): 110%
cell viability ([5]; 1 nM): 104%
cell viability ([5]; 10 nM): 98%
cell viability ([5]; 100 nM): 98.4%
cell viability ([5]; 1000 nM): 104%
cell viability ([5]; 10000 nM): 98.2%
drug sensitivity score [6]: 0
drug sensitivity score [7]: 0
drug sensitivity score [8]: 0
drug sensitivity score [9]: 0
drug sensitivity score [10]: 0
relative viability EC50 [11]: > 10 µM
relative viability EC50 [12]: > 10 µM
relative viability EC50 [13]: > 10 µM
relative viability EC50 [14]: > 10 µM
relative viability EC50 [15]: > 10 µM

O=C(O)CCC(=O)O [succinic-acid]
cell viability ([1]; 1 nM): 95.5%
cell viability ([1]; 10 nM): 102%
cell viability ([1]; 100 nM): 97.7%
cell viability ([1]; 1000 nM): 102%
cell viability ([1]; 10000 nM): 101%
cell viability ([2]; 1 nM): 92.2%
cell viability ([2]; 10 nM): 89.7%
cell viability ([2]; 100 nM): 86%
cell viability ([2]; 1000 nM): 94.8%
cell viability ([2]; 10000 nM): 93.5%
cell viability ([3]; 1 nM): 110%
cell viability ([3]; 10 nM): 100%
cell viability ([3]; 100 nM): 110%
cell viability ([3]; 1000 nM): 101%
cell viability ([3]; 10000 nM): 99.8%
cell viability ([4]; 1 nM): 97.2%
cell viability ([4]; 10 nM): 105%
cell viability ([4]; 100 nM): 98.5%
cell viability ([4]; 1000 nM): 101%
cell viability ([4]; 10000 nM): 97.5%
cell viability ([5]; 1 nM): 104%
cell viability ([5]; 10 nM): 96.6%
cell viability ([5]; 100 nM): 95.5%
cell viability ([5]; 1000 nM): 98.4%
cell viability ([5]; 10000 nM): 104%
drug sensitivity score [6]: 0
drug sensitivity score [7]: 0
drug sensitivity score [8]: 0
drug sensitivity score [9]: 0
drug sensitivity score [10]: 0
relative viability EC50 [11]: > 10 µM
relative viability EC50 [12]: > 10 µM
relative viability EC50 [13]: > 10 µM
relative viability EC50 [14]: > 10 µM
relative viability EC50 [15]: > 10 µM
